Results reported in article PMC4748848, “Pharmacokinetic/Toxicity Properties of the New Anti-Staphylococcal Lead Compound SK-03-92” (Antibiotics, 2015).
≈ marks a conversion by molar mass, not a printed value. Where “and” joins values, the source holds several entries; their conditions need not be identical. Equal entries are not always repeated. Entries after “also recorded” stand apart in the source; their conditions may differ. Where two headings read alike, the source gives them in different places.

Key:
[1] = Multi-dosing PK, two doses per day for three days; type: in vivo; conditions: mice
Method: (§1) First, a five-day PK study with SK-03-92 orally administered to female 5-6 week old BALB/c mice was conducted. Three mice received 300 μL of blank vehicle by oral administration. Doses of 100 μg/g SK-03-92 were given orally each day in the vehicle. Blood was collected from three mice at time points 15, 30, 45, 60, 75, and 90 min after administration. Body weight was monitored every day before SK-03-92 administration. Plasma was prepared and stored at −70 °C until analyzed by HPLC. In an extension of this PK study to two-weeks following oral administration of SK-03-92, six mice were dosed in the test (SK-03-92) arm and six vehicle control mice in the other arm. Lastly, a multi-dosing PK analysis was done using two 51-μg/g doses of SK-03-92 per day (given four hours apart) over the course of three days in five mice.

[2] = test system: S. aureus (including MRSA and VISA strains); parameters: method as in PMID 21739106; conditions: cited from earlier work
Swiss Webster mice = assay: Initial safety testing in mice, escalating ip dosing (OECD); type: in vivo
Method: Three female 5–9 week old Swiss Webster mice (Harlan) per drug concentration were injected intraperitoneally (ip) with increasing concentrations of SK-03-92: 5, 50, 300, and 2000 mg/kg according to OECD [10]. The lowest concentration of drug was used first. Overt toxicity (e.g., altered gait, ungroomed, significant weight loss) was monitored.

human monocytic U937 = assay: MTT cytotoxicity assay, U937; type: cell-based; conditions: U-937, U937 cells
Method: (§2) Initial in vitro safety testing of SK-03-92 was performed with an MTT [3-(4,5-dimethylthiazol-2-yl)-2,5-diphenyltetrazolium bromide] assay (9, American Type Culture Collection) for several tissue culture cell lines (murine monocytic J774A.1, human monocytic U937, human kidney epithelial 293, and human bladder epithelial T24) using mitomycin C (Sigma, St. Louis, MO, USA) and DMSO alone as positive and negative controls, respectively. Assays were done a total of three times per tissue culture cell line.

[3] = Two-week multi-dose oral PK study; type: in vivo
Method: as §1

[4] = test system: several mammalian cell lines; assay: MTT cytotoxicity, cell lines overall and therapeutic index; type: cell-based; conditions: read-out: IC50 in vitro
Method: as §2

[5] = Relative bioavailability / single dose PK, oral; type: in vivo, BALB/c mice; conditions: mice
Single dose PK assay, ip = type: in vivo, BALB/c mice; conditions: mice
Method: An initial single dose PK experiment was performed using 100 μg/g of formulated SK-03-92 administered ip to twenty-one female, 5–6 week old BALB/c mice (7 per cohort for 3 cohorts, NCI) under parameters established previously. Three animals were used as a control group and received blank vehicle, whereas three mice per time point received 100 μg/g SK-03-92 ip and were sacrificed with blood collected at the 15, 30, 45, 60, 75, and 90 min time points by warming the tails of the mice in warm water, lancing the lateral saphenous tail vein, and collecting the blood (up to 150 μL) into microvette tubes (Sarstedt) containing EDTA or terminal bleed into vacucontainers containing EDTA as an anti-coagulant. Plasma was separated from packed blood cells by centrifugation (600× g) and stored at −70 °C until needed for HPLC analysis. Samples were analyzed with a Shimadzu Prominence HPLC system (Kyoto, Japan) with a Halo C18 column (MAC-MOD Analytical Inc., Chadds Ford, PA, USA). A mobile phase of 62% acetonitrile/38% water, isocratic program of 62% acetonitrile for 20 min, and flow rate of 0.75 mL/min with an injection volume of 10 μL and a retention time of 5.4 min were used. The standard curve for SK-03-92 was linear from 0.0098 to 2.5 μg/mL in plasma. Each chromatogram was collected and integrated to estimate the peak area of analyte by EZ Chrom® software (version.1.0, Agilent Technologies Inc., Santa Clara, CA, USA). The ratio of peak area of SK-03-92 was calculated to estimate the drug concentration(s) using a pre-built calibration curve. Major pharmacokinetic parameters were calculated using the noncompartmental analysis module of WinNonlin® (version 5.1, Pharsight Corp., Princeton, NJ, USA) under sparsely sampling mode.

[6] = test system: human kidney epithelial 293; assay: MTT cytotoxicity assay, 293; type: cell-based; conditions: cell line printed as 292
Method: as §2

[7] = Five-day multi-dose oral PK study; type: in vivo; conditions: female, BALB/c, mouse, plasma, mice, five-day oral 100 μg/g each day
Method: as §1

murine monocytic J774A.1 = assay: MTT cytotoxicity assay, J774A.1; type: cell-based; conditions: Mus musculus, J774.A1; J774A.1 cells
Method: as §2

[8] = test system: human bladder epithelial T24; assay: MTT cytotoxicity assay, T24; type: cell-based; conditions: T-24, T24 cells
Method: as §2

plasma proteins = assay: Plasma protein binding assay; type: in vitro ADME, mice; conditions: mouse plasma; read-out: bound to plasma proteins (converted)
Method: Plasma collected from EDTA treated blood from six SK-03-92 dosed mice was added to methyl tert-butyl ether (MTBE) to precipitate the proteins. The precipitated proteins were separated from the remainder of the plasma by centrifugation (14,000× g for 20 min) through a Microcon 10K filter (Millipore) and dried under a stream of nitrogen gas. The dried product was suspended in 62% acetonitrile/38% ddH2O and the AUC was quantified and correlated with the initial concentration of SK-03-92 present in the plasma.

[9] = Solubility in vehicles by HPLC; type: physicochemical; conditions: for solubility: HPLC
Method: An HPLC method was developed on a Halo C18 4.6 × […], 2.7 μm column (MAC-MOD Analytical Inc., Chadds Ford, PA, USA) for the detection and quantitation of SK-03-92. The method was developed using the information obtained from a scouting gradient of 5%–100% acetonitrile over 35 min. A UV spectrum of SK-03-92 was obtained from the scouting gradient and the observed maximum for SK-03-92 was 335 nm, with a local maximum of 224 nm also observed. The 335 nm maximum wavelength was used for the quantitation of SK-03-92, and the 224 nm local maximum wavelength was used to monitor for possible formation of degradation products not visible at the 335 nm wavelength. Flow rate was 0.750 mL/min and injection volume was 10 μL. The mobile phase was 62% acetonitrile (Fisher, Hanover Park, IL, USA):38% water (Milli-Q UV plus) and the isocratic program was 62% acetonitrile:38% water for 20 min. Acquisition time was 10 min and room temperature retention time was 5.4 min. Standards of SK-03-92 were prepared in acetonitrile at concentrations of 0.05–0.005 mg/mL.

mice, rats, and humans = conditions: cited from earlier work
[10] = cited from earlier work

SMILES: COc1cc(O)cc(/C=C/c2cc3ccccc3s2)c1 [SK-03-92, (E)-3-(2-(benzo[b]thiophen-2-yl)vinyl)-5-methoxyphenol]
- gross adverse effects ([1]; multi-dose analysis): no gross adverse effects
- maximum plasma concentration ([1]; two 51-μg/g doses per day four hours apart for three days): 2.12 µg/mL
- MIC50 [2]: 1 µg/mL (≈ 3.54 µM)
- MIC90 [2]: 2 µg/mL (≈ 7.08 µM)
- adverse effects / overt toxicity after single dose (Swiss Webster mice; 2000 mg/kg IP single dose, two-week time frame, 2000 mg/kg): non-toxic; also recorded: did not exhibit gross toxicity
- overt toxicity after repeat dose (Swiss Webster mice; repeat dose of 2000 mg/kg a week after initial 2000 mg/kg): no overt toxicity was observed
- IC50 (human monocytic U937): 125 µg/mL (≈ 443 µM)
- concentration at 15 min ([3]; BALB/c, mouse, plasma, 100 μg/g, mice, two-week oral administration, after 15 min): 144 ng/mL
- concentration at 75 min ([3]; BALB/c, mouse, plasma, 100 μg/g, mice, two-week oral administration, after 75 min): 10 ng/mL
- weight loss of treated mice ([3]; multi-dose oral, after two-days): about 1.5%
- weight increase of treated mice ([3]; multi-dose oral, day 9): 5.16%
- weight increase of treated mice ([3]; multi-dose oral, day 12): 9.75%
- IC50 [4]: 125 µg/mL (≈ 443 µM)
- half-life ([5]; female, BALB/c, mouse, plasma, po, 100 μg/g, oral, single dose 100 μg/g, read-out: Half-Life): 30 min
- Tmax ([5]; female, BALB/c, mouse, plasma, po, 100 μg/g, oral, single dose 100 μg/g, read-out: Tmax (converted)): 22 min
- concentration at 15 min ([5]; female, BALB/c, mouse, plasma, 100 μg/g oral, after 15 min, read-out: level detected in mouse plasma): 740 ng/g
- concentration at 30 min ([5]; female, BALB/c, mouse, plasma, 100 μg/g oral, by 30 min, read-out: level detected in mouse plasma): 126 ng/g
- AUC(0-inf) ([5]; female, BALB/c, mouse, plasma, oral, single dose 100 μg/g, read-out: AUCINF_obs (converted)): 85.7 ng·h/mL
- Cmax ([5]; female, BALB/c, mouse, po, 100 μg/g, orally administered, plasma): 370 ng/mL
- toxicity signs ([5]; 100 μg/g oral): no toxicity signs were observed
- plasma concentrations ([5]; 75 min after oral gavage): negligible levels
- oral Cmax relative to Cmax of ip-administered drug ([5]; oral vs ip): approximately 25%
- Cl_F_obs ([5]; oral, single dose 100 μg/g): 21.00 ± 6.71 mL/min/g
- Tmax ([5]; oral, single dose 100 μg/g): 21.43 ± 11.80 min
- Vz_F_obs ([5]; oral, single dose 100 μg/g): 810.67 ± 173.87 mL/g
- half-life ([5]; oral, single dose 100 μg/g): 30.40 ± 17.81 min
- concentration at 30 min (Single dose PK assay, ip; female, BALB/c, mouse, plasma, 100 μg/g, 30 min after ip injection): 1640 ng/mL
- concentration at 90 min (Single dose PK assay, ip; female, BALB/c, mouse, plasma, 100 μg/g, within 90 min of ip injection): 149 ng/mL
- half-life (Single dose PK assay, ip; female, BALB/c, mouse, plasma, intraperitoneal, oral, 100 μg/g, single dose 100 μg/g, route not given, read-out: drug half-life): 20 to 30 min
- half-life (Single dose PK assay, ip; female, BALB/c, mouse, plasma, ip, 100 μg/g, ip, single dose 100 μg/g, read-out: Half-Life): 22 min
- Tmax (Single dose PK assay, ip; female, BALB/c, mouse, plasma, ip, single dose 100 μg/g): 30 min
- AUC(0-inf) (Single dose PK assay, ip; female, BALB/c, mouse, plasma, ip, single dose 100 μg/g, read-out: AUCINF_obs (converted)): 1170 ng·h/mL
- Cmax (Single dose PK assay, ip; female, BALB/c, mouse, ip, single dose 100 μg/g, plasma): 1640 ± 590 ng/mL
- time to breakdown into metabolic byproducts (Single dose PK assay, ip; after ip or oral delivery): ≤ 15 min
- Cl_F_obs (Single dose PK assay, ip; ip, single dose 100 μg/g): 1.46 mL/min/g and 1.46 ± 0.26 mL/min/g
- Vz_F_obs (Single dose PK assay, ip; ip, single dose 100 μg/g): 47.71 mL/g and 47.71 ± 33.25 mL/g
- half-life (Single dose PK assay, ip; ip, single dose 100 μg/g): 22.46 ± 17.81 min
- overt toxicity (Single dose PK assay, ip; single dose 100 μg/g ip): no overt toxicity
- time at which peak plasma concentration was achieved (Single dose PK assay, ip; single dose 100 μg/g, route not given): 20 to 30 min
- IC50 [6]: 125 µg/mL (≈ 443 µM)
- concentration at 15 min ([7]; after 15 min): 86 ng/mL
- concentration at 75 min ([7]; after 75 min): 27 ng/mL
- IC50 (murine monocytic J774A.1): 125 µg/mL (≈ 443 µM)
- IC50 [8]: 125 µg/mL (≈ 443 µM)
- fraction unbound (plasma proteins): 0.156
- solubility with Solutol HS 15/PBS solution ([9]; Solutol HS 15/PBS solution): less than 10%
- solubility ([9]; aqueous buffer, PBS, read-out: Solubility in PBS): < 0.1 µg/mL
- solubility ([9]; aqueous with cosolvent or surfactant or cyclodextrin, 20% Solutol HS 15/80% PBS, read-out: Solubility in 20% Solutol HS 15/80% PBS): 4600 µg/mL (≈ 16300 µM)
- solubility ([9]; organic solvent or mixture, PEG 400, read-out: Solubility in PEG 400): 9200 µg/mL (≈ 32600 µM)

SMILES: COc1cc(/C=C/c2ccc(O)cc2)cc(OC)c1 [pterostilbene]
- toxicity at high doses (mice, rats, and humans; mice, rats, and humans): non-toxic
- half-lives in animal plasma ([10]; animal plasma): 120 min
- plasma concentrations ([10]; animals): < 8000 ng/mL

SMILES: Oc1ccc(/C=C/c2cc(O)cc(O)c2)cc1 [resveratrol]
- toxicity at high doses (mice, rats, and humans; in vivo): non-toxic
- half-lives in animal plasma ([10]; in vivo): 15 to 60 min
